Test results as given in US12357561B2, “Compositions and uses of alpha-adrenergic agents” (LEVATION PHARMA LTD., priority 2016, dated 2025).

System: New Zealand rabbits
Test: Ocular observations after injection of oxymetazoline solutions into the post-septal fat pad of rabbits
Assay type: in vivo, rabbit
Conditions: for Palpebral Reflex / Threat Test: 100 μl post-septal fat pad injection; for Palpebral Reflex / Threat Test / eyelid closure (notes): Right Eye
Description: Rabbits without ocular pathology received oxymetazoline solutions by ocular injection. The evolution was tested postoperative, 1, 2, 3, 7, 10, and 14 day after oxymetazoline solutions administration. Eyelids were analyzed by histology at the end of the experiment. Endpoints included inflammation, fibrosis, pre- and post-septal fat, status of levator muscle and Müller's muscle, presence of vascular injury or necrosis or ischemic injury to eyelid tissues.
• Animals: female New Zealand rabbits (2.5-3 kg) • Sedation: atropine sulfate and midazolam IV (ear vein) • Anesthesia: induction with Propofol 1% (10 mg/kg) by ear vein • Maintenance with isoflurane (inhalant anesthesia) • Oxymetazoline solutions • Slit lamp Method Baseline Measures (1st Phase) • I. Animals (n=2); 2.5-3 kg New Zealand rabbit • II. Without sedation and anesthesia • III. Photographic record with a ruler (to serve as a standard measure of distance). Three sets of photos per measurements taken in dim lighting to keep rabbits from squinting • IV. 50 μl of 10% phenylephrine was administered via topical into the right eye (RE) • V. Photographic record with a ruler. Three sets of photos per measurements. After 20-30 minutes post-dose. • VI. Animals returned to animal housing. Test Article (Oxymetazoline Solutions) (2nd Phase) • I. Animals (n=3/each group); 2.5-3 kg New Zealand rabbit • II. Photographic record with a ruler (to serve as a standard measure of distance). Three sets of photos per measurements taken in dim lighting to keep rabbits from squinting. • III. Sedation with atropine sulfate and midazolam • IV. Induction with Propofol • V. Maintenance with isoflurane • VI. Ocular injection of oxymetazoline solutions or PBS (phosphate-buffered saline) • a. Group A: oxymetazoline 1 mg/ml in PBS (RE) and PBS (LE) • b. Group B: oxymetazoline 3 mg/ml in PBS (RE) and PBS (LE) • c. Group C: oxymetazoline 10 mg/ml in PBS (RE) and PBS (LE) All animals were administered 100 μI (0.1 ml) of the oxymetazoline solution (RE) or PBS vehicle control (LE) via an injection into the post-septal fat pad, adjacent to Müller's muscle of both eyelids on Day 0. For this injection, a 30G needle was used; test article was administered at least 4 mm away from the site of the needle entry to prevent reflux of fluid through the hole. • VII. Follow-up. • VIII. Euthanized animals 14 days after the injection of oxymetazoline solutions to process the eyelids tissues. • a. Harvest both eyelids from each animal and store in formalin • b. Histology (H/E staining) Follow-Up Follow-up included: • Eyelid retraction/ptosis measurements & digital photos with eyes directly facing camera and a ruler in the frame of the photograph to standardize distances. Three sets of photos per measurement taken in dim lighting to keep rabbits from squinting. • Slit-lamp biomicroscopy • Daily general health observations • Body weights prior to dosing and prior to sacrifice Study Variables • I. Palpebral fissure distance • II. Margin reflex distance 1 Results • Group A (1 mg/ml) • Notes: • pre-injection.
Group B (3 mg/ml) Notes: • pre-injection.

[1] = Group A 1 mg/ml in PBS, Day 2, animals #1/#2/#3
[2] = Group A 1 mg/ml in PBS, Day 3 morning, animals #1/#2/#3
[3] = Group A 1 mg/ml, Day 2 (3 h post-injection)
[4] = Group B 3 mg/ml in PBS, Day 2, animals #1/#2
[5] = Group B 3 mg/ml in PBS, Day 3 afternoon, animals #1/#2
[6] = Group B 3 mg/ml in PBS, Day 3 morning, animals #1/#2
[7] = Group B 3 mg/ml in PBS, Day 4 morning, animals #1/#2
[8] = Group B 3 mg/ml, Day 2 (3 h post-injection)

SMILES: Cc1cc(C(C)(C)C)c(O)c(C)c1CC1=NCCN1 [oxymetazoline]
- Palpebral Reflex [1]: Abolished/Abolished/
- Threat Test [1]: Abolished/Abolished/
- Threat Test (Group A 1 mg/ml in PBS, Day 3 afternoon, animals #1/#2/#3): Delayed/Delayed/Delayed
- Palpebral Reflex [2]: Delayed/Delayed/Delayed
- Threat Test [2]: Abolished/Abolished/
- Threat Test (Group A 1 mg/ml in PBS, Day 4 afternoon, animals #1/#2/#3): Delayed/Delayed/Delayed
- Threat Test (Group A 1 mg/ml in PBS, Day 4 morning, animals #1/#2/#3): Delayed/Delayed/Delayed
- ocular discomfort (notes) [3]: Animal show ocular discomfort
- eyelid closure (notes) [3]: pressure applied to close eyelid
- eyelid closure (notes) (Group A 1 mg/ml, Day 3 morning): pressure applied to close eyelid
- Palpebral Reflex [4]: Abolished/Abolished
- Threat Test [4]: Abolished/Abolished
- Palpebral Reflex [5]: Delayed/Delayed
- Threat Test [5]: Abolished/Abolished
- Palpebral Reflex [6]: Delayed/Delayed
- Threat Test [6]: Abolished/Abolished
- Threat Test (Group B 3 mg/ml in PBS, Day 4 afternoon, animals #1/#2): Delayed/Delayed
- Palpebral Reflex [7]: Delayed/Delayed
- Threat Test [7]: Delayed/Delayed
- Threat Test (Group B 3 mg/ml in PBS, Day 5, animals #1/#2): Delayed/
- ocular discomfort (notes) [8]: Animal show ocular discomfort
- eyelid closure (notes) [8]: pressure applied to close eyelid
- eyelid closure (notes) (Group B 3 mg/ml, Day 3 afternoon): pressure applied to close eyelid
- eyelid closure (notes) (Group B 3 mg/ml, Day 3 morning): pressure applied to close eyelid
- eyelid closure (notes) (Group B 3 mg/ml, Day 4 morning): pressure applied to close eyelid
